Laboratory results taken from patent US6004905A, “Hyperabas: biologically active abscisic acid analogs with unsaturated carbon substituents at the 8'-methyl or 9'-methyl carbon atoms” (National Research Council of Canada, priority 1998, dated 1999).
pEC50, pIC50: −log10 of the molar value. “Also recorded” adds a separate entry of the source. Like-named read-outs stand apart in the source and are kept apart here.

What was measured:
[1] = test system: wheat seedlings; test: Transpiration in wheat seedlings; format: in vivo, Triticum aestivum L. cv Katepwa; conditions: for reduction in transpiration: (+)-forms of methyl esters, 100 μM, 3 hours (FIG. 8); for reduction of transpiration (summary in words): in vivo; for pEC50: Triticum aestivum, 3 h, intact wheat seedlings, three hours after application, read-out: concentration to reduce the transpiration rate to 50% (TR50)
From the text: ABA is a key signal molecule involved in regulating transpiration in plants (W. J. Davies T. A. Mansfield 1988 Abscisic acid and drought resistance in plants ISI Atlas of Science: Animal and Plant Sciences 0894-3761 p. 263-269). […] This difference in activity is shown in FIG. 4 in which the % transpiration effected by the (+)-forms of methyl esters of ABA (214) , 8'-methyl (370) and 8'-methylene ABA (357) are compared. The structures are as follows: [drawing 13] Seed Germination
The transpiration rate of 6 to 10 day old wheat seedlings (Triticum aestivum L. cv Katepwa) was measured as previously described (Rose et al.^7, 1996 incorporated herein by reference). Antitranspirant activity of the analogs (prepared as a 1% ethanol solution in water) was measured over a range of concentrations to determine the concentration where the transpiration rate of the wheat seedling is reduced by 50%. The transpiration rate (μMol H2 O/cm^2 s) was calculated and then given as a percentage of the initial transpiration rate of the plant (typically 0.28-0.35 μMol H2 O/cm^2 s), corrected for the effect of the control (1% ethanol).
ABA is a key signal molecule involved in regulating transpiration in plants. We had previously determined that esters were as active as acids in this assay (data not shown) so the effect of the methyl esters of natural ABA (+)-^8 '-methylene ABA and 8'-methyl ABA on transpiration in intact wheat seedlings was compared three hours after application. […] The difference in responses may be due to reduced uptake of the 8'-methyl ABA in the intact wheat seedling.

[2] = test system: suspension-cultured corn cells (var. Black Mexican Sweet); test: Growth inhibition of suspension-cultured corn cells; format: cell-based, corn (maize); conditions: for growth inhibition activity (comparison in words): four days; for inhibition at 0.33 µM / pIC50: Zea mays, 96 h; for inhibition at 0.33 µM: four day period, read-out: growth inhibition relative to the control; for pIC50: four days after addition, read-out: concentration required for 50% inhibition of growth
[3] = test system: suspension-cultured corn cells; test: Medium pH changes in corn cell suspension cultures; format: cell-based, corn (maize); conditions: 10 μM solution
Method: Cell growth was measured by the change in fresh weight over a 4-day period, as previously described (Balsevich et al.^6, 1994). The medium pH changes associated with addition of (+)-ABA and (+)-8'-methylene ABA were also measured as described by Balsevich et al.^6, (1994).

[4] = test system: Black Mexican Sweet maize cells; test: Metabolites from maize suspension cells; format: in vitro ADME; conditions: 100 μM, 90 h
Method: Eighteen g of Black Mexican Sweet maize cells were subcultured into a 1L flask containing 500 ml sterile medium as described previously (Balsevich et al.^6, 1994). […] At the end of the culture period, the cells were removed by filtration. The filtrate was frozen until processed for isolation.
The metabolites were extracted from the culture filtrate by a chromatographic procedure using Supelco Amberlite XAD-2 resin (Balsevich et al. 6, 1994). The crude product isolated from the resin was partially purified by preparative TLC (silica gel 60 GF254, 20 cm×20 cm×1 mm, toluene-EtOAc-HOAc 25:15:2 as eluent), giving two isomeric acids, The acids were separately reacted with diazomethane, and then further purified by HPLC as their methyl esters yielding approx. 0.5 mg of each metabolite.

[5] = test system: ABA-responsive cor6.6 promoter; test: ABA-inducible gene expression (GUS activity) in transgenic tobacco seedlings containing Pcor6.6-GUS; format: in vivo, transgenic tobacco (promoter from Arabidopsis thaliana); conditions: 24 hours; for induction of GUS activity: 200 micromolar, relative to untreated control
From the text: The results shown are an average of duplicate assays on samples containing 34 seedlings.
The results shown are an average of duplicate samples containing cotyledons from 34 seedlings.

[6] = ABA-like (hormonal) activity in various assays; parameters: species or system plants; conditions: wheat and cress
[7] = test system: cress seed; test: Cress seed germination inhibition; format: in vivo; conditions: for germination of cress seed: 5 μM (printed 5 M)
Method: The experimental conditions were as follows: 100 seeds are placed on a 9 cm Whatman no. 1 filter paper in a petri dish and treated with 5 ml of solution.
The final concentration of the ethanol in the assay solutions was <0.05%. Assays were conducted with 100 seeds in each Petri dish and performed in triplicate. The germination measurements were based on the growth of the primary root. A seed was considered germinated when the radical was approximately the same length as the seed.

[8] = test system: corn cells; test: Depletion (persistence) from corn cell culture media; format: in vitro ADME, corn (maize)
Method: Ethanolic stock solutions of (+)-ABA, (+)-8'-methylene ABA and (+)-8'-methyl ABA were added to flasks containing 0.2 g of corn cells and 10 ml of culture medium to obtain a final concentration of 100 μM of hormone or analog. Aliquots of medium (100 μl) were removed at intervals and analyzed for ABA or ABA analog content by HPLC as described previously (Balsevich et al.^6, 1994). Each compound was inoculated into 3 flasks and duplicate samples were removed at the indicated time points. The corn cells were used 1 or 2 days after subculturing.

[9] = test system: excised wheat embryos; test: Wheat embryo germination inhibition; format: in vivo, Triticum aestivum L. cv. Clark's Cream; conditions: for concentration giving equivalent germination inhibition: (+)-8'-methylene ABA versus (+)-ABA (FIG. 12)
Method: Grains of soft white wheat (Triticum aestivum L. cv. Clark's Cream) were used. For bioassay, embryos with some adhering endosperm and pericarp attached were cut from the grains with a razor blade. Analogs were prepared by dissolving into a minimal amount of DMSO to prepare a 0.1 M solution, and then diluted with […], pH 5.8, to 0.01, 0.1, 1, 10 and 100 μM. For each analog concentration six replicate germination assays were conducted on 10 embryos each at 30° C. Embryos were incubated in Petri dishes (100×15 mm) containing 6 ml solution.

[10] = test system: suspension-cultured corn cells (var. Black Mexican Sweet); conditions: Balsevich et al 1994, cited from earlier work
[11] = test system: excised wheat embryos; conditions: Walker-Simmons et al., 1992, cited from earlier work
[12] = test system: suspension-cultured corn cells; conditions: Balsevich et al 1994, cited from earlier work

SMILES: C=CC1(C)CC(=O)C=C(C)C1(O)/C=C/C(C)=C\C(=O)OC (single isomer, unassigned; (+)) [(+)-9'-ethylene methyl ABA]
- reduction in transpiration [1]: Equivalent high activity

SMILES: C#CC1(C)CC(=O)C=C(C)C1(O)C=CC(C)=CC(=O)O (stereo not shown) [8'-acetylene ABA]
- growth inhibition activity (comparison in words) [2]: more potent than ABA

SMILES: C=C[C@@]1(C)CC(=O)C=C(C)[C@]1(O)/C=C/C(C)=C\C(=O)O [(+)-8'-methylene ABA, (+) 8'-methyleneabscisic acid]
- shift in pH of the medium [3]: causes a comparable shift in pH as that produced by ABA
- shift in pH of the medium ([3]; listed as (+)- 8'-methylene ABA): causes as great a shift in pH as ABA
- metabolites identified [4]: two isomeric epoxides
- induction of ABA-responsive gene expression (in words) ([5]; 100 μM): slightly weaker inducer than ABA; also recorded: highly effective in inducing ABA-responsive gene expression
- induction of GUS activity [5]: strongly induced GUS activity
- germination inhibition in seeds of both a monocot and a dicot [6]: more effective germination inhibitor in seeds of both a monocot and a dicot
- reduction of transpiration (summary in words) [1]: more effective than ABA
- germination inhibition of cress seed ([7]; 1 μM): more potent than ABA
- germination of cress seed [7]: does not germinate
- germination of cress seed ([7]; listed as 8'-Methylene analog): remain dormant
- germination inhibition of cress seed (summary in words) ([7]; in vivo): more effective than ABA
- time by which 50% had disappeared from the medium ([8]; corn, corn cell culture medium, 100 µM): ~100 h
- inhibition at 0.33 µM [2]: 64%
- pIC50 [2]: > 6.48
- growth inhibition activity (comparison in words) [2]: stronger growth inhibition activity than (+)-ABA at all tested concentrations; also recorded: more effective than ABA
- growth inhibition activity (comparison in words) ([2]; listed as 8'-methylene ABA): the strongest growth inhibition produced by any ABA analog so far
- growth inhibition activity (comparison in words) ([2]; listed as (+)-methylene ABA): significantly stronger than either (+)-ABA or (+)-8'-methyl ABA
- concentration giving equivalent germination inhibition [9]: 1.0 µM
- times more effective than natural ABA, germination inhibition of excised wheat embryos ([9]; embryos from dormant wheat grains (FIG. 12)): at least 10 times
- germination inhibitory activity, wheat embryos (in words) ([9]; in vivo): more active than (+)-ABA; also recorded: most potent compound over all concentrations and time points; also recorded: more effective than ABA

SMILES: CC1=CC(=O)CC(C)(C)[C@@]1(O)/C=C/C(C)=C\C(=O)O [(+)-ABA, abscisic acid]
- growth inhibition (literature) [10]: inhibits growth of maize suspension-cultured cells over a four day period
- growth inhibition (literature) ([10]; listed as Natural ABA): causes growth inhibition
- induction of GUS activity [5]: strongly induced GUS activity
- germination of cress seed [7]: begins to germinate
- germination inhibitory activity, wheat embryos (literature) [11]: equally effective in inhibiting germination
- germination inhibitory activity, wheat embryos (literature) ([11]; listed as ABA): both enantiomers of ABA were equally effective
- time by which 50% had disappeared from the medium ([8]; initial 100 μM, corn cell culture (FIG. 10)): ≤ 24 h
- shift (elevation) in pH of the medium (literature) ([12]; listed as Natural ABA): causes a transient elevation of pH of the corn cell culture medium; also recorded: causes a shift in the pH of the medium of cultured corn cells
- time of maximum of transient elevation of medium pH ([12]; after ABA addition): about 6 h
- inhibition at 0.33 µM [2]: 17%
- pIC50 [2]: ~5.00
- concentration giving equivalent germination inhibition [9]: 10 µM

SMILES: CC1=CC(=O)CC(C)(C)[C@]1(O)/C=C/C(C)=C\C(=O)O [(-)-ABA]
- germination inhibitory activity, wheat embryos (literature) [11]: equally effective in inhibiting germination
- shift (elevation) in pH of the medium (literature) [12]: only weakly

SMILES: COC(=O)/C=C(C)\C=C\[C@@]1(O)C(C)=CC(=O)CC1(C)C [compound 214]
- reduction in transpiration [1]: Equivalent high activity
- pEC50 ([1]; methyl ester, unit M): 4.30 to 4.60

SMILES: C=C[C@@]1(C)CC(=O)C=C(C)[C@]1(O)/C=C/C(C)=C\C(=O)OC [compound 357, (+) Methyl 8'-methyleneabscisate]
- pEC50 ([1]; methyl esters): 5.00 to 5.30
- reduction of transpiration (summary in words) [1]: most active analog

SMILES: CC[C@@]1(C)CC(=O)C=C(C)[C@]1(O)/C=C/C(C)=C\C(=O)OC [compound 370]
- pEC50 ([1]; methyl esters): 4.00
- reduction of transpiration (summary in words) [1]: relatively weak in this assay
- % transpiration effect (comparison in words) ([1]; methyl esters, (+)-forms, 10 μM, 3 hours (FIG. 4)): not as active as the vinyl analog
